# Data: patent publication US20250129135A1, “Multi-Agonist and Use Thereof” (priority 2021, published 2025)
# Starred links: 1 amine or outer side, 2 acyl side, 3 side chain; linkers in the order of their positions; H or OH if unused. Non-standard residues stand in square brackets, D forms with d. Residues, ends and D or L forms follow the SMILES beside them. Groups on a side chain read outwards from the residue. *: point of attachment. C20 diacid = O=C(O)CCCCCCCCCCCCCCCCCCC(=O)*; αMePhe(2-F) = C[C@](N)(Cc1ccccc1F)C(=O)O; γGlu = O=C(O)[C@H](CCC(=O)[*:2])N[*:1]; αMeL = CC(C)C[C@](C)(N)C(=O)O; AEEA = NCCOCCOCC(=O)O; Ac3c = NC1(C(=O)O)CC1; Aib = CC(C)(N)C(=O)O
# Legend:
# RIN-m5F cells = format: cell-based, rat; settings: for Rel. A (Relative Activity) on RIN-m5F: relative to GLP-1(7-37)
# Outline: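 After 60 min room-temperature exposure of HBSS-suspended RIN-m5F cells to compound and another 60 min with detection reagent, cellular cAMP level was determined.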
# 3T3-L1 adipocytes = settings: for Rel. A (Relative Activity) on 3T3-L1 adipocyte: relative to GIP
# Outline: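 Compound-induced cAMP was measured in mature 3T3-L1 adipocytes after 60 min room-temperature exposure to a 10-concentration, 3-fold dilution series, followed by 60 min with kit detection reagent and curve fitting. Differentiation used IBMX/dexamethasone/insulin (5 days), insulin with 10 uM rosiglitazone (3 days), then 2–3 days in 10% FBS.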
# [1] = tested on: human primary liver cells; format: cell-based; settings: for Rel. A (Relative Activity) on human primary liver cells: relative to GCG
# Outline: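 cAMP readout after 60 min with detection reagent, following 60 min room-temperature compound incubation. Cells were primary human liver cells thawed at 37° C and resuspended in HBSS.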
# C57 BL/6J DIO mice = test: In vivo pharmacodynamics in high-fat diet induced obesity (DIO) mice; parameters: species or system mouse; settings: Mean±SEM; for Weight change: Table 6-1; for LDL-C / TC (total cholesterol) / TG (plasma triglycerides): Table 7-1
# From the text: High-fat diet induced obesity (DIO) mice have characteristics such as obesity, elevated blood sugar, insulin resistance, and lipid abnormalities, all of which are very significant metabolic syndromes similar to a human body. The effects of the compounds of the present application on body weight, food intake, blood sugar, and lipids in C57 BL/6J DIO mice were studied.
# Obesity was induced in mice by feeding with a high-fat diet (60 kcal % of calories from fat). […] After grouping, one animal was raised in each cage for one week, during which each of the animals was injected subcutaneously (S.C.) with a solvent (1×PBS, 5 ml/kg) to pre-adapt the experimental operation process.
# After the preparation of animals, vehicle control or compounds were administered to groups of animals by subcutaneous injection, in which the compounds were dissolved in 1×PBS, the dosage was 5 ml/kg, and the administration operation was started at 9:00 am and conducted once every three days (Q3D) for 15 days. Throughout the entire experimental study, animal weight and food intake were measured daily before administration, and compared with initial weight and food intake of the same animal before administration to calculate a percentage change in animal weight (%) and cumulative food intake, so as to evaluate the impact of compounds on changes in body weight and food intake.
# At the end point of the experiment (Day 15), the body weight of the mice was measured, and then fasting blood glucose was measured by taking blood from the tail tip of broken tail without anesthesia. After the blood collection, the animals were anesthetized with CO2 and euthanized. Then, blood was taken from the heart and plasma was separated by centrifugation. The plasma was used to measure total cholesterol (TC), low-density lipoprotein cholesterol (LDL-C), triglycerides (TG), and blood insulin content. The liver was separated for homogenization, and then centrifuged to obtain the supernatant for determining triglyceride content in the liver.
# All results were expressed in Mean±SEM, and the results were analyzed by one-way ANOVA using GraphPad Prism 5 software, followed by Dunnett's post hoc test compared to the Vehicle control group. The difference at the p<0.05 level was considered statistically significant.
# [2] = Rat pharmacokinetics (PK) study; format: in vivo; settings: sc, male SD rats, subcutaneous 30 nmol/kg, plasma
# Procedure: 7˜9 weeks old male SD rats (220-250 g, 3 rats/group) were subjected to subcutaneous injection of 30 nmol/kg compound. After administration, blood was collected through the jugular vein at time points 0.25, 2, 4, 8, 12, 16, 24, 48, 96, 120, and 144 hours. The blood was processed to obtain plasma samples and analyzed using LC-MS/MS. The blood concentration time curve was analyzed using Phoenix WinNonlin version 6.3 software (non compartment model), and PK parameters and half-life were calculated.
# Human GIP R = target: T1, Human GIP R (Homo sapiens, UniProt P48546); test: cAMP (HTRF) activity in CHO cells stably overexpressing GIP receptor; format: cell-based; settings: for Human GIP R Rel. A (Relative Activity): EC50 of human GIP / EC50 of compound
# T1 construct: expressed in transfected cells; host or cells: CHO
# T1 sequence (P48546 22-466): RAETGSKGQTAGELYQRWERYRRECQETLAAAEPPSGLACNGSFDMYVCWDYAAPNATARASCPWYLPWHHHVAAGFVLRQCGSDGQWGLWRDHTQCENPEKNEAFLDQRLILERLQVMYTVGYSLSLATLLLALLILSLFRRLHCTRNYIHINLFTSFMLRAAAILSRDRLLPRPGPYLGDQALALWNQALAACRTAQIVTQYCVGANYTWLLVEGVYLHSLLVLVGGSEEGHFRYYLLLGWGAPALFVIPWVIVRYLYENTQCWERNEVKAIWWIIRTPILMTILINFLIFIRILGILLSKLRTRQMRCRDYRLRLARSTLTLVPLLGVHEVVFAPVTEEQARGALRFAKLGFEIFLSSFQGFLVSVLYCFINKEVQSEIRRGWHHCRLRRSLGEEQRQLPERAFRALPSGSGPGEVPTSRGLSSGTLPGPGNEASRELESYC
# Outline: (§1)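 Cells resuspended in HBSS are incubated with compound for 60 min at room temperature, then with HTRF cAMP detection reagent for a further 60 min. Concentration-response fits give agonist EC50 values in nM.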
# Human GCG R = target: T2, Human GCG R (Homo sapiens, UniProt P47871); test: cAMP (HTRF) activity in HEK-293 cells stably overexpressing human GCG receptor; format: cell-based; settings: EC50 of human GCG / EC50 of compound
# T2 construct: expressed in transfected cells; host or cells: HEK-293
# T2 sequence (P47871 26-477): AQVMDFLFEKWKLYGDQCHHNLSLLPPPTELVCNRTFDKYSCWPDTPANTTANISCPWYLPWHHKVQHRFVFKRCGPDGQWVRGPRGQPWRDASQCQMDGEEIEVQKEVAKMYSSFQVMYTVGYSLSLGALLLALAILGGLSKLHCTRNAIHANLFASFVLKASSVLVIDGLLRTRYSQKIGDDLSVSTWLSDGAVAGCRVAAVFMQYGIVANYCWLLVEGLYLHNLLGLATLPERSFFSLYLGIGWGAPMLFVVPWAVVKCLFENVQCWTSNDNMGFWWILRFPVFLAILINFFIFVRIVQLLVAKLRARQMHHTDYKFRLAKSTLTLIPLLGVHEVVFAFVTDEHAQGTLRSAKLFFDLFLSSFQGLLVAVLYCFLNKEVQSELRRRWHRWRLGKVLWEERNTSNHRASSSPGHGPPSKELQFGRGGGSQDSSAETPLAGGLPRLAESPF
# Outline: as §1
# Human GLP-1R = Human GLP-1R (Homo sapiens, UniProt P43220); test: cAMP (HTRF) activity in HEK-293 cells stably overexpressing human GLP-1 receptor; format: cell-based; parameters: expressed in transfected cells; host or cells: HEK-293; settings: for Human GLP-1R Rel. A (Relative Activity): EC50 of human GLP-1 (7-37) / EC50 of compound
# Human GLP-1R, sequence (P43220 24-463): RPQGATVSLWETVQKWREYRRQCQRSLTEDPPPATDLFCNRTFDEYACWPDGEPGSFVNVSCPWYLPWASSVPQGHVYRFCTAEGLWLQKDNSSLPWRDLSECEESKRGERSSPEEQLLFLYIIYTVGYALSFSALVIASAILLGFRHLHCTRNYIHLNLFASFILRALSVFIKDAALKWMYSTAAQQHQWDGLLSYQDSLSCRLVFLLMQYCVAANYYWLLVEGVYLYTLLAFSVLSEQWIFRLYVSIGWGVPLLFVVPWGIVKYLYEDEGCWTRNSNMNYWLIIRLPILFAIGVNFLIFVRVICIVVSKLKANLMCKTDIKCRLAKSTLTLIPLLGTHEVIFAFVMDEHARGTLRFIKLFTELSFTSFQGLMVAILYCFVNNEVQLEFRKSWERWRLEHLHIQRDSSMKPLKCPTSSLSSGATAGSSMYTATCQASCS
# Outline: as §1
# [3] = stable transfected cell cAMP activity, at least 3 independent tests
Compound,EC50 (RIN-m5F cells),EC50 (3T3-L1 adipocytes),EC50 [1],"Liver TG (C57 BL/6J DIO mice; Table 9-1, 3 nmol/kg, Day 15)",Human GIP R Rel. A (Relative Activity) (Human GIP R),Human GCG R Rel. A (Relative Activity) (Human GCG R),Rel. A (Relative Activity) on RIN-m5F (RIN-m5F cells),Rel. A (Relative Activity) on 3T3-L1 adipocyte (3T3-L1 adipocytes),Rel. A (Relative Activity) on human primary liver cells [1],Human GLP-1R Rel. A (Relative Activity) (Human GLP-1R),further results
CC[C@H](C)[C@H](NC(=O)[C@H](Cc1ccccc1)NC(=O)[C@H](C)NC(=O)C(C)(C)NC(=O)[C@H](CCC(N)=O)NC(=O)[C@H](C)NC(=O)[C@H](CCCCNC(=O)COCCOCCNC(=O)COCCOCCNC(=O)CC[C@H](NC(=O)CCCCCCCCCCCCCCCCCCC(=O)O)C(=O)O)NC(=O)[C@H](CCCCN)NC(=O)[C@H](CC(=O)O)NC(=O)[C@H](CC(C)C)NC(=O)[C@](C)(CC(C)C)NC(=O)[C@@H](NC(=O)[C@H](CO)NC(=O)[C@H](Cc1ccc(O)cc1)NC(=O)[C@H](CC(=O)O)NC(=O)[C@H](CO)NC(=O)[C@@H](NC(=O)[C@](C)(Cc1ccccc1)NC(=O)[C@@H](NC(=O)CNC(=O)[C@H](CCC(N)=O)NC(=O)C(C)(C)NC(=O)[C@@H](N)Cc1ccc(O)cc1)[C@@H](C)O)[C@@H](C)O)[C@@H](C)CC)C(=O)N[C@@H](CCC(=O)O)C(=O)N[C@@H](Cc1ccc(O)cc1)C(=O)N[C@@H](CC(C)C)C(=O)N[C@@H](CC(C)C)C(=O)N[C@@H](CCC(=O)O)C(=O)N[C@@H](CO)C(=O)N[C@@H](Cc1c[nH]cn1)C(=O)N1CCC[C@H]1C(=O)N[C@@H](CO)C(=O)N[C@@H](CO)C(=O)NCC(=O)N[C@@H](C)C(=O)N1CCC[C@H]1C(=O)N1CCC[C@H]1C(=O)NC1(C(=O)N[C@@H](CO)C(N)=O)CC1 [Compound 3],0.4 nM,1.87 nM,1.59 nM,32.2 ± 2.99 mg,,,,,,,"Weight change (C57 BL/6J DIO mice; 3 nmol/kg s.c. Q3D for 15 days): −21.2 ± 0.75%; Weight change (C57 BL/6J DIO mice; 10 nmol/kg s.c. Q3D for 15 days): −32.4 ± 2.94%; Weight change (C57 BL/6J DIO mice; 30 nmol/kg s.c. Q3D for 15 days): −51.6 ± 1.21%; LDL-C (C57 BL/6J DIO mice; 3 nmol/kg, Day 15): 0.52 ± 0.033 mM; TC (total cholesterol) (C57 BL/6J DIO mice; 3 nmol/kg, Day 15): 3.42 ± 0.214 mM; TG (plasma triglycerides) (C57 BL/6J DIO mice; 3 nmol/kg, Day 15): 0.87 ± 0.066 mM; LDL-C (C57 BL/6J DIO mice; 30 nmol/kg, Day 15): 0.37 ± 0.035 mM; TC (total cholesterol) (C57 BL/6J DIO mice; 30 nmol/kg, Day 15): 2.15 ± 0.079 mM; TG (plasma triglycerides) (C57 BL/6J DIO mice; 30 nmol/kg, Day 15): 0.55 ± 0.022 mM; Blood sugar (fasting blood glucose) (C57 BL/6J DIO mice; Table 8-1, 3 nmol/kg, Day 15): 107.5 ± 5.17 mg/dL; Insulin (blood) (C57 BL/6J DIO mice; Table 8-1, 3 nmol/kg, Day 15): 25.4 ± 16.90 mIU/L; AUC(0-t) [2]: 6.69 µM·h; Cmax [2]: 149 nM; Tmax [2]: 21.3 h; half-life [2]: 19.1 h"
CC[C@H](C)[C@H](NC(=O)[C@H](Cc1ccccc1)NC(=O)[C@H](C)NC(=O)C(C)(C)NC(=O)[C@H](CCC(N)=O)NC(=O)[C@H](C)NC(=O)[C@H](CCCCNC(=O)COCCOCCNC(=O)COCCOCCNC(=O)CC[C@H](NC(=O)CCCCCCCCCCCCCCCCCCC(=O)O)C(=O)O)NC(=O)[C@H](CCCCN)NC(=O)[C@H](CC(=O)O)NC(=O)[C@H](CC(C)C)NC(=O)[C@H](Cc1ccccc1)NC(=O)[C@@H](NC(=O)[C@H](CO)NC(=O)[C@H](Cc1ccc(O)cc1)NC(=O)[C@H](CC(=O)O)NC(=O)[C@H](CO)NC(=O)[C@@H](NC(=O)[C@](C)(Cc1ccccc1F)NC(=O)[C@@H](NC(=O)CNC(=O)[C@H](CCC(N)=O)NC(=O)C(C)(C)NC(=O)[C@@H](N)Cc1ccc(O)cc1)[C@@H](C)O)[C@@H](C)O)[C@@H](C)CC)C(=O)N[C@@H](CCC(=O)O)C(=O)N[C@@H](Cc1ccccc1)C(=O)N[C@@H](CC(C)C)C(=O)N[C@@H](CC(C)C)C(=O)N[C@@H](CCC(=O)O)C(=O)N[C@@H](CO)C(=O)N[C@@H](Cc1c[nH]cn1)C(=O)N1CCC[C@H]1C(=O)N[C@@H](CO)C(=O)N[C@@H](CO)C(=O)NCC(=O)N[C@@H](C)C(=O)N1CCC[C@H]1C(=O)N1CCC[C@H]1C(=O)NC1(C(=O)N[C@@H](CO)C(N)=O)CC1 [Compound 10] (H-Y[Aib]QGT[αMePhe(2-F)]TSDYSIFLDKK([AEEA-AEEA-γGlu-C20 diacid])AQ[Aib]AFIEFLLESHPSSGAPP[Ac3c]S-NH2),0.274 nM,6.16 nM,5.19 nM,81.6 ± 8.50 mg,861.90%,75.00%,376.64%,61.76%,75.00%,93.62%,EC50 (Human GIP R; [3]): 0.021 nM
CC[C@H](C)[C@H](NC(=O)[C@H](Cc1ccccc1)NC(=O)[C@H](C)NC(=O)C(C)(C)NC(=O)[C@H](CCC(N)=O)NC(=O)[C@H](C)NC(=O)[C@H](CCCCNC(=O)COCCOCCNC(=O)COCCOCCNC(=O)CC[C@H](NC(=O)CCCCCCCCCCCCCCCCCCC(=O)O)C(=O)O)NC(=O)[C@H](CCCCN)NC(=O)[C@H](CC(=O)O)NC(=O)[C@H](CC(C)C)NC(=O)[C@](C)(CC(C)C)NC(=O)[C@@H](NC(=O)[C@H](CO)NC(=O)[C@H](Cc1ccc(O)cc1)NC(=O)[C@H](CC(=O)O)NC(=O)[C@H](CO)NC(=O)[C@@H](NC(=O)[C@](C)(Cc1ccccc1F)NC(=O)[C@@H](NC(=O)CNC(=O)[C@H](CCC(N)=O)NC(=O)C(C)(C)NC(=O)[C@@H](N)Cc1ccc(O)cc1)[C@@H](C)O)[C@@H](C)O)[C@@H](C)CC)C(=O)N[C@@H](CCC(=O)O)C(=O)N[C@@H](Cc1ccccc1)C(=O)N[C@@H](CC(C)C)C(=O)N[C@@H](CC(C)C)C(=O)N[C@@H](CCC(=O)O)C(=O)N[C@@H](CO)C(=O)N[C@@H](Cc1c[nH]cn1)C(=O)N1CCC[C@H]1C(=O)N[C@@H](CO)C(=O)N[C@@H](CO)C(=O)NC(C)(C)C(=O)N[C@@H](Cc1c[nH]cn1)C(=O)N1CCC[C@H]1C(=O)N1CCC[C@H]1C(=O)NC1(C(=O)N[C@@H](CO)C(N)=O)CC1 [Compound 40] (H-Y[Aib]QGT[αMePhe(2-F)]TSDYSI[αMeL]LDKK([AEEA-AEEA-γGlu-C20 diacid])AQ[Aib]AFIEFLLESHPSS[Aib]HPP[Ac3c]S-NH2),0.16 nM,2.56 nM,1.07 nM,,150.83%,34.13%,645.00%,148.46%,364.33%,275.00%,"Liver TG (C57 BL/6J DIO mice; Table 9-2, 3 nmol/kg, Day 15): 42.1 ± 5.22 mg; EC50 (Human GLP-1R; [3]): 0.016 nM"
